The values below come from patent US20120225852A1, “USE OF STEROID COMPOUNDS” (priority 2009, published 2012).

For series [1] the following is noted: mice; cited from earlier work.
In series [2] the test system is collagen-induced arthritis (CIA). The note with it: cited from earlier work.
For series [3] the following is noted: mitogen-induced proliferation, delayed-type hypersensitivity, mixed lymphocyte reaction; cited from earlier work.
For another series, the system named is Naive CD4+ T cells. The series can be described thus: Naive CD4+ T cells under Th17 cell polarizing conditions. In kind it is cell-based. The note with it: for number of CD4+ IL-10-secreting T cells: among Th17 differentiating cells, 4 days, FIG. 37; for number of CD4+ IL-17-secreting T cells: and rIL-6, 4 days, vs RPMI, FIG. 36.
Series [4] deals with Lymph node (LN) cells from unprimed DO11.10 TCR Tg mice. The series can be described thus: OVA-stimulated lymph node cell culture, T cell proliferation. In kind it is cell-based. The following applies: for proliferation of the T cells that respond to the antigen: LN cells stimulated with OVA, vs control RPMI, FIG. 1; for effect on T cell responses in general: overall conclusion of Example 1 (FIGS. 1-4).

A further series concerns naïve CD4+ T cells. The series can be described thus: Naive CD4+ T cells under Treg cell generating conditions. Type of series: cell-based. The note with it: for proliferation: Treg cell generating conditions, 5 days, FIG. 39; for number of Foxp3+ Treg cells: rIL-2, with or even without rTGF-β1, 5 days, FIG. 38.
A further series deals with EAE. The series can be described thus: EAE after cessation of 15 days of treatment, 45 additional days of monitoring. Type of series: in vivo, C57BL/6 mice. From the text:
The mice continued to be monitored daily for clinical signs of EAE for 45 additional days thereafter.

Series [5] deals with EAE in C57BL/6 Rag−/− recipients. The series can be described thus: Adoptive transfer of CD4+ T cells from treated EAE donors into C57BL/6 Rag-/- recipients. Type of series: in vivo, C57BL/6 Rag−/− mice.
The subject of series [6] is ongoing EAE in recipient mice. The experiment in a line: Adoptive transfer of CD4+ T cells from treated EAE donors into recipients with ongoing EAE. Type of series: in vivo.
Series [7] concerns response to OVA in EAE-induced mice. The experiment in a line: EAE mice treated for 15 days, then immunized with OVA/CFA. In kind it is in vivo, C57BL/6 mice. The method, then: Treatment stopped and mice were then injected with OVA/CFA (Complete Freund's Adjuvant).
Instead, the response to a new antigen that the mice are exposed to is enhanced.

Series [8] deals with ongoing EAE in recipient mice. The series can be described thus: Adoptive transfer of DLN cells from treated EAE donors into recipients with ongoing EAE. In kind it is in vivo. From the text: The donor DLN cells were obtained on day 17, which is the peak of disease for control mice. This protection was observed until day 28-30 when the mice were euthanized.
Where [9] appears, read: oral, 50 mg/kg, beginning at onset of disease.

As to `C#C[C@]1(O)CC[C@H]2[C@@H]3[C@@H](O)C=C4C[C@@H](O)CC[C@]4(C)[C@H]3CC[C@@]21C` [HE3286], the oral bioavailability entry in series [1] was “up to 25%”. Further, in series [2] (associated with benefit), the “numbers and function of CD4+CD25+FOXp3+CD127-regulatory T cells (T reg)” value is “increases”. For the same compound, in [2] (setting [9]), the CIA peak scores entry is “significantly decreased” and the “daily severity of arthritis scores” value is listed as “significantly decreased”. Further, the “immune suppression in classical models” value in series [3] is on record as “not found to be immune suppressive”.

On to `C[C@]12CC[C@H](O)CC1=CCC1C2CC[C@@]2(C)C1CC[C@]21O[C@H]1CO` (stereo partly drawn) [BNN-124, (20S)-3β,21-dihydroxy-17β,20-epoxy-5-pregnene], for which, in the series on Naive CD4+ T cells, the “number of CD4+ IL-10-secreting T cells” value is recorded as “significant increase” and the “number of CD4+ IL-17-secreting T cells” value is listed as “increase”. In series [4], the “proliferation of the T cells that respond to the antigen” value (“proliferation … to the antigen” for short) is recorded as “significantly decreased” and the “effect on T cell responses in general” value was “immunosuppressive effect”. Moreover, in the series with naïve CD4+ T cells, the proliferation result is “increased” and the “number of Foxp3+ Treg cells” value is reported as “significant increase”.

Regarding `C[C@]12CC[C@H](O)CC1=CC[C@@H]1[C@@H]2CC[C@@]2(C)[C@H]1CC[C@@]21CO1` [BNN-50, 17β-spiro-[5-androsten-17,2′-oxiran]-3β-ol], in the series with Naive CD4+ T cells, the “number of CD4+ IL-10-secreting T cells” value is on record as “significant increase” and the “number of CD4+ IL-17-secreting T cells” value is listed as “increase”. In addition, in series [4], the “proliferation … to the antigen” value is “significantly decreased” and the “effect on T cell responses in general” value was “immunosuppressive effect”. In the series with naïve CD4+ T cells, the proliferation result is “increased” and the “number of Foxp3+ Treg cells” value is listed as “significant increase”.

`C[C@]12CC[C@H](O)CC1=CC[C@@H]1[C@@H]2CC[C@@]2(C)[C@H]1CC[C@@]21OC1CO` (stereo partly drawn) [BNN-93, 3β,21-dihydroxy-17α,20-epoxy-5-pregnene]: the “protection from EAE development after cessation of treatment” value in the series with EAE (treated 15 days from around day 13, monitored 45 additional days, FIGS. 34 and 35) is given as “remained protected”. In addition, the “disease score after cessation of treatment” value in the series with EAE (treated 15 days, monitored 45 additional days, vs control mice) is recorded as “remained unchanged”. Also, the “ex vivo proliferation to MOG35-55” value in series [5] (DLN cells of Rag−/− recipients, FIG. 33a) is given as “substantially decreased”. In addition, the “production of IFN-γ” value in [5] (DLN cells of Rag−/− recipients, FIG. 33b) is listed as “decreased production”. Besides, in series [5] (DLN cells of Rag−/− recipients, FIG. 33c), the “production of IL-17” value is “decreased production”. Further, the “EAE scores induced in recipients” value in [5] (after pertussis toxin injections, FIGS. 31 and 32) is recorded as “no disease”. Also, in the series on Naive CD4+ T cells, the “number of CD4+ IL-10-secreting T cells” value is “significant increase” and the “number of CD4+ IL-17-secreting T cells” value is on record as “increase”. In addition, in series [4], the “proliferation … to the antigen” value is on record as “significantly decreased” and the “effect on T cell responses in general” value is on record as “immunosuppressive effect”. For the same compound, in the series on naïve CD4+ T cells, the proliferation entry is listed as “increased” and the “number of Foxp3+ Treg cells” value is given as “significant increase”. The “mean maximum EAE score” value in [6] (CD4+ T cell transfer into recipients with ongoing EAE, FIGS. 28 and 29) is recorded as “significant decrease”. For the same compound, in series [6] (DLN cells and splenocytes of recipients, FIG. 30), the “proliferation to MOG35-55 ex vivo” value is recorded as “significantly decreased”. In addition, the “production of IFN-γ” value in [7] (after OVA/CFA immunization) is “increased”. Also, in series [7] (after OVA/CFA immunization, FIG. 40), the “T cell response to OVA ex vivo (3H-Thymidine incorporation)” value is “substantially increased”. The “EAE phenotype after end of treatment and OVA/CFA injection” value in [7] (in comparison to control mice) is on record as “stable phenotype without any deterioration”. Moreover, in series [7] (treated 15 days from shortly after disease onset, then OVA/CFA), the “protection from EAE” value is listed as “clearly protected”. Besides, the recovery of recipients entry in series [8] (DLN cell transfer, vs PBS-treated donors, FIG. 24) is “rapid recovery”. The “mean maximum disease score” value in [8] (DLN cell transfer, vs PBS-treated donors, FIG. 25) is given as “significant reduction”. Moreover, the “EAE development in recipients” value in series [8] (DLN cells of donors treated days 12-17, vs DLN cells from PBS-treated donors, FIG. 24) is recorded as “confer suppression”. The “ex vivo proliferation to MOG35-55” value in series [8] (DLN cells of recipients, FIG. 26a) is given as “significantly decreased”. Further, in series [8] (DLN cells of recipients, FIG. 26b), the “levels of supernatant IFN-γ” value is recorded as “decreased levels”. Moreover, in series [8] (DLN cells of recipients, FIG. 26c), the “levels of supernatant IL-17” value is reported as “decreased levels”. The “recruitment of CD11c+ dendritic cells” value in series [8] (draining lymph nodes of recipients, FIG. 27a) is given as “substantially decreased”. Moreover, in series [8] (draining lymph nodes of recipients, FIG. 27b), the “recruitment of IL-17 secreting T cells” value is “substantially decreased”. Besides, the “recruitment of CD4+ Foxp3+ regulatory T cells” value in series [8] (draining lymph nodes of recipients, FIG. 27c) was “increased”.
